Patent US11345711B2, “8,9-dihydroimidazo[1,2-a]pyrimido[5,4-e]pyrimidin-5(6H)-ones” (IMPACT THERAPEUTICS (SHANGHAI), INC, priority 2016, dated 2022)
Where two headings read alike, the source gives them in different places.

What was measured:
[1] = test system: LoVo cells; test: MTT based cell viability assay on LoVo cells; details: Homo sapiens, LoVo, 72 h, 3 d, read-out: IC50, growth inhibition of LoVo cells
How it was run: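 Inhibition of LoVo proliferation was derived as IC50 from a sigmoidal dose-response fit of cell survival. Readout was MTT (0.5 mg/mL, 4 h) with absorbance at 552/630/690 nm, after 3-day treatment at 37 °C. Eight-point series from 10 μM to 0.01 μM, DMSO control, 1% DMSO final.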

[2] = target: Wee1 (h) (Homo sapiens, UniProt P30291); test: Wee1 kinase (h) detection method, [γ-33P]-ATP filter assay; type: biochemical
Sequence of Wee1 (h) (P30291 whole entry): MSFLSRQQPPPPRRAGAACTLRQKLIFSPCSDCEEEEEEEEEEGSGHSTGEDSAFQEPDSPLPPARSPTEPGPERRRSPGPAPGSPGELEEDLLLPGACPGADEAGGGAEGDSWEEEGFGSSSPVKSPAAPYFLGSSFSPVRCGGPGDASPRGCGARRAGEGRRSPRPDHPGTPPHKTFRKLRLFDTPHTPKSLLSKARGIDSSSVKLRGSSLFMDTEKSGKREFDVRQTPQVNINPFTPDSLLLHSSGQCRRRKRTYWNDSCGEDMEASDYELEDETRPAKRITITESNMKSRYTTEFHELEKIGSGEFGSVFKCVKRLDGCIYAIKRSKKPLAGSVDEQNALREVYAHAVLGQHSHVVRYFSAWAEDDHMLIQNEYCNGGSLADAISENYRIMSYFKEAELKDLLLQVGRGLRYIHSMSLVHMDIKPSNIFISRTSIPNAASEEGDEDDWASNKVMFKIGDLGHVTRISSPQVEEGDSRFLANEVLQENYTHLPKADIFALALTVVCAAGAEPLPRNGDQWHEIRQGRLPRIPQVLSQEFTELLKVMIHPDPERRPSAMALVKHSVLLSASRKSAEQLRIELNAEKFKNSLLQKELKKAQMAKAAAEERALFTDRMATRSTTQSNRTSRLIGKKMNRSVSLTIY

[3] = test system: NCI-H1299 cells; test: MTT based cell viability assay on NCI-H1299 cells; details: Homo sapiens, read-out: IC50, growth inhibition of NCI-H1299 cells
How it was run: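 NCI-H1299 cells (1000/well, settled overnight) were exposed for 3 d at 37 °C, 5% CO2, to an eight-point series of 10 μM to 0.01 μM plus DMSO blank, as prepared in DMSO (final DMSO 1‰). MTT (0.5 mg/mL, 4 h) was read at 552/630/690 nm. IC50 came from sigmoidal dose-response fits of survival.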

IC50 [1] [nM] | Inh. (%) of Wee1 kinase enzyme activity ([2]; C 0.01 μm compound) [%] | Inh. (%) of Wee1 kinase enzyme activity ([2]; C 0.1 μm compound) [%] | Inh. (%) of Wee1 kinase enzyme activity ([2]; C 1 μm compound) [%] | IC50 ([3]; NCI-H1299, NCI-H1299 cells) [nM] | IC50 ([3]; NCI-H1299 cells) [nM] | Structure (SMILES)
30.8 | 42 | 98 | 97 | 175 |  | Cc1cc(Nc2ncc3c(n2)N2CCN=C2N(c2c(Cl)cccc2Cl)C3=O)cc(Cl)c1N1CCN(C)CC1 [Example 151, 6-(2,6-Dichlorophenyl)-2-((3-chloro-5-methyl-4-(4-methylpiperazin-1-yl)phenyl)amino)-8,9-dihydroimidazo[1,2-a]pyrimido[5,4-e]pyrimidin-5(6H)-one]
139 |  |  | 88 | 1950 |  | CN1CCN(c2c(Cl)cc(Nc3ncc4c(n3)N3CCN=C3N(c3c(Cl)cccc3Cl)C4=O)cc2C(F)(F)F)CC1 [Example 152, 6-(2,6-Dichlorophenyl)-2-((3-chloro-4-(4-methylpiperazin-1-yl)-5-(trifluoromethyl)phenyl)amino)-8,9-dihydroimidazo[1,2-a]pyrimido[5,4-e]pyrimidin-5(6H)-one]
56.3 | 30 | 84 | 94 | 235 |  | COc1cc(Nc2ncc3c(n2)N2CCN=C2N(c2c(Cl)cccc2Cl)C3=O)cc(Cl)c1N1CCN(C)CC1 [Example 153, 6-(2,6-Dichlorophenyl)-2-((3-chloro-5-methoxy-4-(4-methylpiperazin-1-yl)phenyl)amino)-8,9-dihydroimidazo[1,2-a]pyrimido[5,4-e]pyrimidin-5(6H)-one]
63.3 | 25 | 72 | 96 | 174 |  | CN1CCN(c2c(F)cc(Nc3ncc4c(n3)N3CCN=C3N(c3c(Cl)cccc3Cl)C4=O)cc2Br)CC1 [Example 154, 6-(2,6-Dichlorophenyl)-2-((3-bromo-5-fluoro-4-(4-methylpiperazin-1-yl)phenyl)amino)-8,9-dihydroimidazo[1,2-a]pyrimido[5,4-e]pyrimidin-5(6H)-one]
74.1 | 16 | 66 | 94 | 109 |  | CN1CCN(c2c(Cl)cc(Nc3ncc4c(n3)N3CCN=C3N(c3c(Cl)cccc3Cl)C4=O)cc2Br)CC1 [Example 155, 6-(2,6-Dichlorophenyl)-2-((3-bromo-5-chloro-4-(4-methylpiperazin-1-yl)phenyl)amino)-8,9-dihydroimidazo[1,2-a]pyrimido[5,4-e]pyrimidin-5(6H)-one]
62.7 | 19 | 81 | 96 | 150 |  | Cc1cc(Nc2ncc3c(n2)N2CCN=C2N(c2c(Cl)cccc2Cl)C3=O)cc(Br)c1N1CCN(C)CC1 [Example 156, 6-(2,6-Dichlorophenyl)-2-((3-bromo-5-methyl-4-(4-methylpiperazin-1-yl)phenyl)amino)-8,9-dihydroimidazo[1,2-a]pyrimido[5,4-e]pyrimidin-5(6H)-one]
38.6 |  |  | 91 |  | 222 | COc1cc(Nc2ncc3c(n2)N2CCN=C2N(c2c(Cl)cccc2Cl)C3=O)cc(Br)c1N1CCN(C)CC1 [Example 157, 6-(2,6-Dichlorophenyl)-2-((3-bromo-5-methoxy-4-(4-methylpiperazin-1-yl)phenyl)amino)-8,9-dihydroimidazo[1,2-a]pyrimido[5,4-e]pyrimidin-5(6H)-one]
58.5 | 27 | 84 | 95 | 105 |  | Cc1cc(Nc2ncc3c(n2)N2CCN=C2N(c2c(Cl)cccc2Cl)C3=O)cc(C)c1N1CCN(C)CC1 [Example 158, 6-(2,6-Dichlorophenyl)-2-((3,5-dimethyl-4-(4-methylpiperazin-1-yl)phenyl)amino)-8,9-dihydroimidazo[1,2-a]pyrimido[5,4-e]pyrimidin-5(6H)-one]
